Measured values reported in patent US10696648B2, “Inhibitors of indoleamine 2,3-dioxygenase and methods of their use” (BRISTOL-MYERS SQUIBB COMPANY, priority 2016, dated 2020).

The compounds below were run against T1, human IDO1 (Homo sapiens, UniProt P14902) (assay: HEK293 cells stably expressing human IDO1, IDO inhibition assay (kynurenine, Ehrlich reagent)). Conditions: 20 hours incubation, absorbance at 490 nm, read-out: HEK Human IDO-1 Bio Activity (IDO IC50).
T1 construct: expressed in transfected cells
T1 sequence (P14902 whole entry): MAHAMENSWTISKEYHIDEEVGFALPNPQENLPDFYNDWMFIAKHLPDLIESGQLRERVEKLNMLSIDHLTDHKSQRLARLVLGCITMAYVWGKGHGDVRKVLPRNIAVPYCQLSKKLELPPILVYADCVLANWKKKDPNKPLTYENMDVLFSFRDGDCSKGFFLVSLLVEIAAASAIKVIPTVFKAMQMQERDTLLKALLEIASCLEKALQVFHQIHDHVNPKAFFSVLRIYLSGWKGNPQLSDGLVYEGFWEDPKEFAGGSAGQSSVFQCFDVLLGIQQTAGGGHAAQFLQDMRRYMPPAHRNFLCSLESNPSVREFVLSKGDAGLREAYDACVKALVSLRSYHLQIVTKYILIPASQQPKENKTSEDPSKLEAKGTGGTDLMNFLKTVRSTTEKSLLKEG
Type: cell-based
Experimental: HEK293 cells were transfected with a pCDNA-based mammalian expression vector harboring human IDO1 cDNA (NM 002164.2) by electroporation. They were cultured in medium (DMEM with 10% FBS) containing 1 mg/ml G418 for two weeks. Clones of HEK293 cells that stably expressed human IDO1 protein were selected and expanded for IDO inhibition assay. The human IDO1/HEK293 cells were seeded at 10,000 cells per 50 μL per well with RPMI/phenol red free media contains 10% FBS in a 384-well black wall clear bottom tissue culture plate (Matrix Technologies LLC) 100 nL of certain concentration of compound was then added to each well using ECHO liquid handling systems. The cells were incubated for 20 hours in 37° C. incubator with 5% CO2. The compound treatments were stopped by adding trichloroacetic acid (Sigma-Aldrich) to a final concentration at 0.2%. The cell plate was further incubated at 50° C. for 30 minute. The equal volume supernatant (20 μL) and 0.2% (w/v) Ehrlich reagent (4-dimethylaminobenzaldehyde, Sigma-Aldrich) in glacial acetic acid were mixed in a new clear bottom 384-well plate. This plate was then incubated at room temperature for 30 minute. The absorbance at 490 nm was measured on Envision plate reader. Compound IC50 values were calculated using the counts of 500 nM of a reference standard treatment as one hundred percent inhibition, and counts of no compound but DMSO treatment as zero percent inhibition.

IC50	Structure (SMILES)
< 100 nM	COc1ccc(CN(C(=O)Nc2ccc(Cl)cc2)[C@H]2CC[C@H](c3ccccc3)CC2)cc1 [Example 4, 3-(4-Chlorophenyl)-1-(4-methoxybenzyl)-1-((1r,4r)-4-phenylcyclohexyl)urea]
< 1000 nM	COc1ccc(CN(C(=O)Nc2ccc(F)cc2F)[C@H]2CC[C@H](c3ccccc3)CC2)cc1 [Example 5, 3-(2,4-difluorophenyl)-1-(4-methoxybenzyl)-1-(trans-4-phenylcyclohexyl)urea]
< 1000 nM	COc1ccc(CN(C(=O)Nc2ccc(F)c(F)c2)[C@H]2CC[C@H](c3ccccc3)CC2)cc1 [Example 8, 3-(3,4-difluorophenyl)-1-(4-methoxybenzyl)-1-(trans-4-phenylcyclohexyl)urea]
< 1000 nM	COc1ccc(CN(C(=O)Nc2ccc(F)cc2)[C@H]2CC[C@H](c3ccccc3)CC2)cc1 [Example 9, 3-(4-fluorophenyl)-1-(4-methoxybenzyl)-1-(trans-4-phenylcyclohexyl)urea]
< 1000 nM	COc1ccc(CN(C(=O)Nc2ccc(OC(F)(F)F)cc2)[C@H]2CC[C@H](c3ccccc3)CC2)cc1 [Example 10, 1-(4-methoxybenzyl)-1-(trans-4-phenylcyclohexyl)-3-(4-(trifluoromethoxy)phenyl)urea]
< 100 nM	COc1ccc(CN(C(=O)Nc2ccc(C(F)(F)F)cc2)[C@H]2CC[C@H](c3ccccc3)CC2)cc1 [Example 12, 1-(4-methoxybenzyl)-1-(trans-4-phenylcyclohexyl)-3-(4-(trifluoromethyl)phenyl)urea]
< 1000 nM	CCOc1ccc(NC(=O)N(Cc2ccc(OC)cc2)[C@H]2CC[C@H](c3ccccc3)CC2)cc1 [Example 13, 3-(4-ethoxyphenyl)-1-(4-methoxybenzyl)-1-(trans-4-phenylcyclohexyl)urea]
< 100 nM	O=C(Nc1ccc(Cl)cc1F)N(Cc1ccccc1)[C@H]1CC[C@@H](c2ccnc3ccc(F)cc32)CC1 [Example 24, 1-benzyl-3-(4-chloro-2-fluorophenyl)-1-(cis-4-(6-fluoroquinolin-4-yl)cyclohexyl)urea]
< 1000 nM	COc1ccc(CN(C(=O)N[C@@H](C)c2ccc(Cl)cc2)[C@H]2CC[C@H](c3ccccc3)CC2)cc1 [Example 31, 3-((S)-1-(4-chlorophenyl)ethyl)-1-(4-methoxybenzyl)-1-((1r,4S)-4-phenylcyclohexyl)urea]
< 10000 nM	COc1ccc(CN(C(=O)NCc2ccc(F)cc2)C2CCC(c3ccccc3)CC2)cc1 (stereo not shown) [Example 32, 3-(4-fluorobenzyl)-1-(4-methoxybenzyl)-1-((1r,4r)-4-phenylcyclohexyl)urea]
< 100 nM	COc1ccc(CN(C(=O)N[C@H](C)c2ccc(F)cc2)C2CCC(c3ccccc3)CC2)cc1 (stereo partly drawn) [Example 33, 3-((R)-1-(4-fluorophenyl)ethyl)-1-(4-methoxybenzyl)-1-((1r,4R)-4-phenylcyclohexyl)urea]

The remaining lines, values behind:

Structure (SMILES)	IC50
CN(C(=O)Nc1ccc(Cl)cc1)C1CCN(c2ccnc3ccc(F)cc23)CC1 [Example 1, 3-(4-Chlorophenyl)-1-(1-(6-fluoroquinolin-4-yl)piperidin-4-yl)-1-methylurea]	< 1000 nM
CCCCc1ccc(NC(=O)N(C)C2CCN(c3ccnc4ccc(F)cc34)CC2)cc1 [Example 2, 3-(4-Butylphenyl)-1-(1-(6-fluoroquinolin-4-yl)piperidin-4-yl)-1-methylurea]	< 100 nM
CN(C(=O)Nc1ccc(OC(F)(F)F)cc1)C1CCN(c2ccnc3ccc(F)cc23)CC1 [Example 3, 1-(1-(6-Fluoroquinolin-4-yl)piperidin-4-yl)-1-methyl-3-(4-(trifluoromethoxy)phenyl)urea]	< 1000 nM
CN(C(=O)Nc1ccc(Cl)cc1)[C@H]1CC[C@H](c2ccnc3ccc(F)cc32)CC1 [Example 14, 3-(4-Chlorophenyl)-1-(trans-4-(6-fluoroquinolin-4-yl)cyclohexyl)-1-methylurea]	< 100 nM
CN(C(=O)Nc1ccc(Cl)cc1)[C@H]1CC[C@@H](c2ccnc3ccc(F)cc32)CC1 [Example 15, 3-(4-chlorophenyl)-1-(cis-4-(6-fluoroquinolin-4-yl)cyclohexyl)-1-methylurea]	< 1000 nM
CCN(C(=O)Nc1ccc(Cl)cc1)[C@H]1CC[C@H](c2ccnc3ccc(F)cc32)CC1 [Example 16, 3-(4-Chlorophenyl)-1-ethyl-1-(trans-4-(6-fluoroquinolin-4-yl)cyclohexyl)urea]	< 100 nM
CCN(C(=O)Nc1ccc(Cl)cc1)[C@H]1CC[C@@H](c2ccnc3ccc(F)cc32)CC1 [Example 17, 3-(4-chlorophenyl)-1-ethyl-1-(cis-4-(6-fluoroquinolin-4-yl)cyclohexyl)urea]	< 1000 nM
O=C(Nc1ccc(Cl)cc1)N(Cc1ccccc1)[C@H]1CC[C@H](c2ccnc3ccc(F)cc32)CC1 [Example 18, 1-benzyl-3-(4-chlorophenyl)-1-(trans-4-(6-fluoroquinolin-4-yl)cyclohexyl)urea]	< 100 nM
O=C(Nc1ccc(F)cc1)N(Cc1ccccc1)[C@H]1CC[C@H](c2ccnc3ccc(F)cc32)CC1 [Example 19, 1-benzyl-3-(4-fluorophenyl)-1-(trans-4-(6-fluoroquinolin-4-yl)cyclohexyl)urea]	< 100 nM
Cc1ccc(NC(=O)N(Cc2ccccc2)[C@H]2CC[C@H](c3ccnc4ccc(F)cc43)CC2)cc1 [Example 20, 1-benzyl-1-(trans-4-(6-fluoroquinolin-4-yl)cyclohexyl)-3-(p-tolyl)urea]	< 1000 nM
O=C(Nc1ccc(Cl)cc1F)N(Cc1ccccc1)[C@H]1CC[C@H](c2ccnc3ccc(F)cc32)CC1 [Example 21, 1-benzyl-3-(4-chloro-2-fluorophenyl)-1-(trans-4-(6-fluoroquinolin-4-yl)cyclohexyl)urea]	< 1000 nM
N#Cc1ccc(NC(=O)N(Cc2ccccc2)[C@H]2CC[C@H](c3ccnc4ccc(F)cc43)CC2)cc1 [Example 22, 1-benzyl-3-(4-cyanophenyl)-1-(trans-4-(6-fluoroquinolin-4-yl)cyclohexyl)urea]	< 10000 nM
O=C(Nc1ccc(Cl)cc1)N(Cc1ccccc1)[C@H]1CC[C@@H](c2ccnc3ccc(F)cc32)CC1 [Example 23, 1-benzyl-3-(4-chlorophenyl)-1-(cis-4-(6-fluoroquinolin-4-yl)cyclohexyl)urea]	< 1000 nM
O=C(O)Cc1ccc(CN(C(=O)Nc2ccc(Cl)cc2)[C@H]2CC[C@H](c3ccnc4ccc(F)cc43)CC2)cc1 [Example 25, 2-(4-((3-(4-chlorophenyl)-1-(trans-4-(6-fluoroquinolin-4-yl)cyclohexyl)ureido)methyl)phenyl)acetic Acid]	< 1000 nM
O=C(O)Cc1ccc(CN(C(=O)Nc2ccc(Cl)cc2F)[C@H]2CC[C@H](c3ccnc4ccc(F)cc43)CC2)cc1 [Example 26, 2-(4-((3-(4-chloro-2-fluorophenyl)-1-(trans-4-(6-fluoroquinolin-4-yl)cyclohexyl)ureido)methyl)phenyl) acetic acid]	< 100 nM
O=C(O)Cc1ccc(CN(C(=O)Nc2ccccc2)[C@H]2CC[C@H](c3ccnc4ccc(F)cc43)CC2)cc1 [Example 27, 2-(4-((1-(trans-4-(6-fluoroquinolin-4-yl)cyclohexyl)-3-phenylureido)methyl)phenyl)acetic acid]	< 100 nM
O=C(O)Cc1ccc(CN(C(=O)Nc2ccc(Cl)cc2)[C@H]2CC[C@@H](c3ccnc4ccc(F)cc43)CC2)cc1 [Example 28, 2-(4-((3-(4-chlorophenyl)-1-(cis-4-(6-fluoroquinolin-4-yl)cyclohexyl)ureido)methyl)phenyl)acetic acid]	< 10000 nM
C[C@H](NC(=O)N[C@H]1CC[C@H](c2ccnc3ccc(F)cc32)CC1)c1ccc(Cl)cc1 [Example 34, 1-((S)-1-(4-chlorophenyl)ethyl)-3-((1r,4S)-4-(6-fluoroquinolin-4-yl)cyclohexyl)urea]	< 1000 nM
C[C@H](NC(=O)N[C@H]1CC[C@@H](c2ccnc3ccc(F)cc32)CC1)c1ccc(Cl)cc1 [Example 35, 1-((S)-1-(4-chlorophenyl)ethyl)-3-((1s,4R)-4-(6-fluoroquinolin-4-yl)cyclohexyl)urea]	< 1000 nM
C[C@H](NC(=O)N(C)[C@H]1CC[C@H](c2ccnc3ccc(F)cc32)CC1)c1ccc(Cl)cc1 [Example 36, 3-((S)-1-(4-chlorophenyl)ethyl)-1-((1r,4S)-4-(6-fluoroquinolin-4-yl)cyclohexyl)-1-methylurea]	< 1000 nM
CCN(C(=O)N[C@@H](C)c1ccc(Cl)cc1)[C@H]1CC[C@H](c2ccnc3ccc(F)cc32)CC1 [Example 37, 3-((S)-1-(4-chlorophenyl)ethyl)-1-ethyl-1-((1r,4S)-4-(6-fluoroquinolin-4-yl)cyclohexyl)urea]	< 1000 nM
C[C@H](NC(=O)N(Cc1ccccc1)[C@H]1CC[C@H](c2ccnc3ccc(F)cc32)CC1)c1ccc(Cl)cc1 [Example 39, 1-benzyl-3-((S)-1-(4-chlorophenyl)ethyl)-1-((1r,4S)-4-(6-fluoroquinolin-4-yl)cyclohexyl)urea]	< 10000 nM
C[C@@H](NC(=O)N(Cc1ccccc1)[C@H]1CC[C@H](c2ccnc3ccc(F)cc32)CC1)c1ccc(F)cc1 [Example 40, 1-benzyl-3-((R)-1-(4-fluorophenyl)ethyl)-1-((1r,4R)-4-(6-fluoroquinolin-4-yl)cyclohexyl)urea]	< 1000 nM
